# Values quoted from earlier work, collected in paper PMC9851200, “Multiparameter phenotypic screening for endogenous TFEB and TFE3 translocation identifies novel chemical series modulating lysosome function” (Autophagy, 2022).
# Columns and labels:
# Design in all cases: method as in original PKIS2 published data
# [1] = biological target: T1, kinases (KINOMEscan panel) (Homo sapiens, UniProt O14976); details: kinase GAK; Published KINOMEscan; ref original PKIS2 published data; cited from earlier work
# T1 sequence (O14976 1-1311): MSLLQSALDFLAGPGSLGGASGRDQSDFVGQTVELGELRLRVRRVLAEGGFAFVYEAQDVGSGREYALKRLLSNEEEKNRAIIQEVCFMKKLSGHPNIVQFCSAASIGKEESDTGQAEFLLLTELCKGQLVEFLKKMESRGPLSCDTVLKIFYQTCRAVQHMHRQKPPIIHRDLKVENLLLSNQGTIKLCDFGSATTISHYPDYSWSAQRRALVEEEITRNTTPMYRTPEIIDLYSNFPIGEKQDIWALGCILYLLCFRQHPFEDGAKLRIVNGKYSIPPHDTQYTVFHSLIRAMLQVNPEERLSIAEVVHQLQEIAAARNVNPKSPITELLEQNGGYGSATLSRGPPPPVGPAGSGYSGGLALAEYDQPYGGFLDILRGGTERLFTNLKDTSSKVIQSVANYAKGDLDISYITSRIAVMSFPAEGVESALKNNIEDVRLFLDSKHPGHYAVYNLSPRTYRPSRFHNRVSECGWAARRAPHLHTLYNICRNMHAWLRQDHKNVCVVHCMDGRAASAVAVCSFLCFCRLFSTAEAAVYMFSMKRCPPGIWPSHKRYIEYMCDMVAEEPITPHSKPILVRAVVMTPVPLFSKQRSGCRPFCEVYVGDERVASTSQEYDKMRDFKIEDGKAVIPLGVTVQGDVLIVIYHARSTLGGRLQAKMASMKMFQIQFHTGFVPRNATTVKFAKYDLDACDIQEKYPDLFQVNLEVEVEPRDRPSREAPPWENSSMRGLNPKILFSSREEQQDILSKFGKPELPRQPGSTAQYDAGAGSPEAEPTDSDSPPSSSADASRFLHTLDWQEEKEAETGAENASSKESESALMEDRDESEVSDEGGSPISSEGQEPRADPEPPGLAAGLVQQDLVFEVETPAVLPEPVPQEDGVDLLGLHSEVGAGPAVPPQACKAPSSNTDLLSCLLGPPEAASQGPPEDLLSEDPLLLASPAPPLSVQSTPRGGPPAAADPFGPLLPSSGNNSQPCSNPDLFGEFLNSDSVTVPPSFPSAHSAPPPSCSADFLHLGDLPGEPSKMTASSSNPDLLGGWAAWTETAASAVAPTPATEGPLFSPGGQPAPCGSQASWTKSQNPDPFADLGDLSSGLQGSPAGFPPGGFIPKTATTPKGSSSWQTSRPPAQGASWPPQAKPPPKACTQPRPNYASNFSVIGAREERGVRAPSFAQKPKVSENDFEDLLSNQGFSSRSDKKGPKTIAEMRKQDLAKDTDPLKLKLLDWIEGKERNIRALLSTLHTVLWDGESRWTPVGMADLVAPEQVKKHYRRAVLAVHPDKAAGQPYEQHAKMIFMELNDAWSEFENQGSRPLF
# [2] = biological target: kinases (KINOMEscan panel) (Homo sapiens, UniProt O94921); details: Published KINOMEscan; ref original PKIS2 published data; cited from earlier work
# Sequence of kinases (KINOMEscan panel) (Homo sapiens, UniProt O94921) (O94921 whole entry): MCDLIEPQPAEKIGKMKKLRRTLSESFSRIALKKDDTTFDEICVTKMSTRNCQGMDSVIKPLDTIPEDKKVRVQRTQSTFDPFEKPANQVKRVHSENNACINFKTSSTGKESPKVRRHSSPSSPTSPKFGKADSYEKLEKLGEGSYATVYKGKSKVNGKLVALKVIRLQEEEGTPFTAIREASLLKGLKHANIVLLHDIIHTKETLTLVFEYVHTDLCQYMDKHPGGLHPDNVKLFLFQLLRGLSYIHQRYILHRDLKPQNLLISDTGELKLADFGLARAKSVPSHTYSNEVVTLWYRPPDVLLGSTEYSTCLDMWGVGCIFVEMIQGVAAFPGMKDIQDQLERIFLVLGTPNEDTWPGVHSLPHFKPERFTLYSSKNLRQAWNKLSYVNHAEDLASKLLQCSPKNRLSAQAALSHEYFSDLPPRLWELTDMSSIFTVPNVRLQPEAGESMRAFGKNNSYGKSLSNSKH
# [3] = biological target: T2, kinases (KINOMEscan panel) (Homo sapiens, UniProt Q13976); details: kinase PRKG1; Published KINOMEscan; ref original PKIS2 published data; cited from earlier work
# T2 sequence (Q13976 1-671): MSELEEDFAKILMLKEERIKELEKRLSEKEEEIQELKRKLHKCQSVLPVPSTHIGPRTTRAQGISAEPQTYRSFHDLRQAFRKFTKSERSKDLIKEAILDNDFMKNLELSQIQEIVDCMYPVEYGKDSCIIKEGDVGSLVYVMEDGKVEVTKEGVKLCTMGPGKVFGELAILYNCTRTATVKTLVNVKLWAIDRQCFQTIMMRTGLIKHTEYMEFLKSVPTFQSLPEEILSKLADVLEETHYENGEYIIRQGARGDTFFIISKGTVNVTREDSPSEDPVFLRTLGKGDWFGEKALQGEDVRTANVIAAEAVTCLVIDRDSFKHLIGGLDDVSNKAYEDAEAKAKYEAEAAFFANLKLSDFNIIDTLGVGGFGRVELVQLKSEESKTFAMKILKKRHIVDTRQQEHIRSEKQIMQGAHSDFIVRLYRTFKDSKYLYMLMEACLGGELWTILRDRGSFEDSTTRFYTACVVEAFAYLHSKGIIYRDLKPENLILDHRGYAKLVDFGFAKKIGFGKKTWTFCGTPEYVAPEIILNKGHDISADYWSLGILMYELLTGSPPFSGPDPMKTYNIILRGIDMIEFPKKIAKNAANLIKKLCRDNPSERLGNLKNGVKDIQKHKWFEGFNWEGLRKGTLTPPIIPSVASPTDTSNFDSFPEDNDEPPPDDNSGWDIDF
# [4] = biological target: T3, kinases (KINOMEscan panel) (Homo sapiens, UniProt Q8IWQ3); details: kinase BRSK2; Published KINOMEscan; ref original PKIS2 published data; cited from earlier work
# T3 sequence (Q8IWQ3 1-736): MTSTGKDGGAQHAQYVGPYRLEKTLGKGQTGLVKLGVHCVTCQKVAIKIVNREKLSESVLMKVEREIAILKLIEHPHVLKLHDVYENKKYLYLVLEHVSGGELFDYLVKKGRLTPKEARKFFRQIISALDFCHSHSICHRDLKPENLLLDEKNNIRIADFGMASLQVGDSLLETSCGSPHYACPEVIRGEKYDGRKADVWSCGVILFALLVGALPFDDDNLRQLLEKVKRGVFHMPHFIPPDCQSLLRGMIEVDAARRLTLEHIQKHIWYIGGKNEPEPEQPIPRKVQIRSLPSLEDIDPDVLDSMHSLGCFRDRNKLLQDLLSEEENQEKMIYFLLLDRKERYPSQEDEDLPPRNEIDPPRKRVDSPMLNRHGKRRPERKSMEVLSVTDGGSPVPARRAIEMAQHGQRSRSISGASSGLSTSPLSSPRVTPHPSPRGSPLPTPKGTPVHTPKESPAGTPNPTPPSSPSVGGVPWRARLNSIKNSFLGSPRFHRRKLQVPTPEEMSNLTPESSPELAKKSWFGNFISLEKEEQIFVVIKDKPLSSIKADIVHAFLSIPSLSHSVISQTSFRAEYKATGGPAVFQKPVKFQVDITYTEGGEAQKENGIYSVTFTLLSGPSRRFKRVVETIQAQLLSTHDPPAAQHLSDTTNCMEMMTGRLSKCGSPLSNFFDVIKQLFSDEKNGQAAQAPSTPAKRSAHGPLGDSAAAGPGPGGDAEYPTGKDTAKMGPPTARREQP
# [5] = biological target: kinases (KINOMEscan panel) (Homo sapiens, UniProt Q9P0L2); details: Published KINOMEscan; ref original PKIS2 published data; cited from earlier work
# Sequence of kinases (KINOMEscan panel) (Homo sapiens, UniProt Q9P0L2) (Q9P0L2 whole entry): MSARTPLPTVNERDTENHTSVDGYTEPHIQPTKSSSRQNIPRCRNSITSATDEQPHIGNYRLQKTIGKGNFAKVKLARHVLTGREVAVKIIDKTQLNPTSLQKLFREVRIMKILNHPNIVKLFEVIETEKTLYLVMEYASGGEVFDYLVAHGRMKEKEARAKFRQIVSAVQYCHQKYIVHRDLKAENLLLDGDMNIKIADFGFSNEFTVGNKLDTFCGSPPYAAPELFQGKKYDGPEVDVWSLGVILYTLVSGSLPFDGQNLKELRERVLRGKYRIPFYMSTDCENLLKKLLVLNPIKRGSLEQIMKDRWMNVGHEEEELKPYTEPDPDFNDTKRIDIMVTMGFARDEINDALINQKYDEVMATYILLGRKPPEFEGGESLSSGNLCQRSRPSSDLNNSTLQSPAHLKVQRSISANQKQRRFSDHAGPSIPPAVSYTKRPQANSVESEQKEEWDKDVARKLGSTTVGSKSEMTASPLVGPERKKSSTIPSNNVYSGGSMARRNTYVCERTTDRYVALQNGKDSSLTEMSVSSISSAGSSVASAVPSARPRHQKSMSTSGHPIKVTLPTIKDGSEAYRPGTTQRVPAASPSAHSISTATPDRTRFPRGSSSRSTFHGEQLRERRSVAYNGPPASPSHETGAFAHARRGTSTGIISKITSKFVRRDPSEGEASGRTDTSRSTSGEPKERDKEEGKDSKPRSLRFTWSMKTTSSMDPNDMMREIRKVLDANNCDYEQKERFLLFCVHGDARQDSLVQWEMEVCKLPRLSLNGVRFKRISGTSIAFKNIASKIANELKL
structure (smiles),measurement,setting,value
Cc1cccc(-c2nc(Nc3ccncc3)c3ccccc3n2)n1 [NK215],KINOMEscan GAK,[1],0
same,KINOMEscan CDK14,[2],0
same,KINOMEscan PRKG1,[3],7
same,KINOMEscan BRSK2,[4],11
same,KINOMEscan MARK1,[5],0
